Data as given in US8859580B2 (Boehringer Ingelheim International GmbH, priority 2007, dated 2014).
Read-outs that look alike come from different tables or passages of the source.

Target: T1, 11β-HSD1 (Homo sapiens, UniProt P28845)
T1 construct: detecting cortisol generated from cortisterone by human liver microsomes; from tissue; host or cells: human liver microsomes
Test: In vitro inhibition of 11β-HSD1, HTRF detection of cortisol generated from cortisone by human liver microsomes
Format: biochemical
Details: 1 hour at 37° C., pH 6.0, NADPH 200 μM, cortisone 80 nM, inhibition relative to carbenoxolone signal
In short: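 Cortisol formed from cortisone by human liver microsomes quantified by competitive HTRF immunoassay (XL665-cortisol, Eu-cryptate anti-cortisol antibody), 2 h detection, Em665/Em615 ratio converted via cortisol calibration curve. Percent inhibition relative to carbenoxolone signal; IC50 from curves.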

T1 sequence (P28845 whole entry): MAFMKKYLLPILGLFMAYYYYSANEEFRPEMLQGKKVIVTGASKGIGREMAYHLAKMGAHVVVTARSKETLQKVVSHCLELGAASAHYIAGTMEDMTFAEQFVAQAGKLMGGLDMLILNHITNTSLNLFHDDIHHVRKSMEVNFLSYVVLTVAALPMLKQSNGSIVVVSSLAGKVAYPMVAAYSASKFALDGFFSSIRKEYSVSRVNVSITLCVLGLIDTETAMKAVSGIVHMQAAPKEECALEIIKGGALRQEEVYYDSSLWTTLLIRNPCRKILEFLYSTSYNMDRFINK

Compound	IC50 (11β-HSD IC50 (nM)) [nM]	IC50 (read-out: 11β-HSD IC50) [nM]
CC1(C)[C@H]2Cc3c(O)cccc3[C@]1(C)CCN2C(=O)c1ccc2ncsc2c1 [Example 46, Benzothiazol-6-yl-[(2R,6S)-10-hydroxy-6,11,11-trimethyl-1,2,5,6-tetrahydro-4H-2,6-methano-benzo[d]azocin-3-yl]-methanone]	97	–
CC1(C)C2Cc3ccccc3C1(O)CCN2C(=O)c1ccc2nc[nH]c2c1 (stereo not drawn) [Example 57, (3H-Benzoimidazol-5-yl)-(6-hydroxy-11,11-dimethyl-1,2,5,6-tetrahydro-4H-2,6-methano-benzo[d]azocin-3-yl)-methanone]	137	–
Cn1cc(C2=NC3=CC4=C(CC3=N2)C[C@H]2N(C(=O)c3ccc5nc[nH]c5c3)CC[C@]4(C)C2(C)C)ccc1=O [Example 272, (3H-Benzoimidazol-5-yl)-[(6R,10S)-5,6,7,8,9,10-hexahydro-10,12,12-trimethyl-2-(1-methyl-6-oxo-1,6-dihydro-pyridin-3-yl)-6,10-methano-imidazo[5,4-i][3]benzazocin-7-yl]-methanone]	–	44
CC1(C)[C@H]2Cc3c(O)cccc3[C@]1(C)CCN2C(=O)c1ccccc1C#N [Example 8, 2-[(2R,6S)-10-Hydroxy-6,11,11-trimethyl-1,2,5,6-tetrahydro-4H-2,6-methano-benzo[d]azocine-3-carbonyl]-benzonitrile]	3360	–
C[C@@H]1[C@H]2Cc3ccc(C(C)(C)O)cc3[C@]1(C)CCN2C(=O)c1ccc2nc[nH]c2c1 [Example 340, (3H-Benzoimidazol-5-yl)-[(2R,6R,11S)-8-(1-hydroxy-1-methyl-ethyl)-6,11-dimethyl-1,2,5,6-tetrahydro-4H-2,6-methano-benzo[d]azocin-3-yl]-methanone]	67	–
CCN(CC)Cc1ccc(C(=O)N2CC[C@@]3(C)c4cccc(O)c4C[C@@H]2C3(C)C)cc1 [Example 119, (4-Diethylaminomethyl-phenyl)-[(2R,6S)-10-hydroxy-6,11,11-trimethyl-1,2,5,6-tetrahydro-4H-2,6-methano-benzo[d]azocin-3-yl]-methanone]	1550	–
CC1(C)[C@H]2Cc3ccccc3[C@]1(C)CCN2C(=O)c1ccc(N)nc1 [Example 304, (6-Amino-pyridin-3-yl)-[(2R,6S)-6,11,11-trimethyl-1,2,5,6-tetrahydro-4H-2,6-methano-benzo[d]azocin-3-yl)-methanone]	251	–
Cn1nnc2cc3c(cc21)C[C@H]1N(C(=O)c2ccc4nc[nH]c4c2)CC[C@]3(C)C1(C)C [Example 258, (3H-Benzoimidazol-5-yl)-[(6R,10S)-5,6,7,8,9,10-hexahydro-3,10,12,12-tetramethyl-6,10-methano-triazolo[4,5-i][3]benzazocin-7-yl]-methanone]	33	–
Cn1cnc2cc3c(cc21)[C@]1(C)CCN(C(=O)c2ccc4nc[nH]c4c2)[C@H](C3)C1(C)C [Example 241, (3H-Benzoimidazol-5-yl)-[(6R,10S)-5,6,7,8,9,10-hexahydro-1,10,12,12-tetramethyl-6,10-methano-imidazo[5,4-i][3]benzazocin-7-yl]-methanone]	204	–
CC(=O)c1ccc2c(c1)[C@]1(C)CCN(C(=O)c3ccc4nc[nH]c4c3)[C@H](C2)C1(C)C [Example 204, 1-[(2R,6S)-3-(3H-Benzoimidazole-5-carbonyl)-6,11,11-trimethyl-1,2,3,4,5,6-hexahydro-2,6-methano-benzo[d]azocin-8-yl]-ethanone]	27	–
CC1(C)[C@H]2Cc3cc(-c4ccccc4)ccc3[C@]1(C)CCN2C(=O)c1ccc2nc[nH]c2c1 [Example 102, (3H-Benzoimidazol-5-yl)-[(2R,6S)-6,11,11-trimethyl-9-phenyl-1,2,5,6-tetrahydro-4H-2,6-methano-benzo[d]azocin-3-yl]-methanone]	1460	–
CC(C)(O)c1ccc2c(c1)[C@]1(C)CCN(C(=O)c3ccc4nc[nH]c4c3)[C@H](C2)C1(C)C [Example 229, (3H-Benzoimidazol-5-yl)-[(2R,6S)-8-(1-hydroxy-1-methyl-ethyl)-6,11,11-trimethyl-1,2,5,6-tetrahydro-4H-2,6-methano-benzo[d]azocin-3-yl]-methanone]	68	–
CC1(C)[C@H]2Cc3ccccc3[C@]1(C)CCN2C(=O)c1ccc2[nH]ncc2c1 [Example 293, (1H-Indazol-5-yl)-[(2R,6S)-6,11,11-trimethyl-1,2,5,6-tetrahydro-4H-2,6-methano-benzo[d]azocin-3-yl]-methanone]	27	–
CC1(C)[C@H]2Cc3c(O)cccc3[C@]1(C)CCN2C(=O)c1ccc(CN)cc1 [Example 117, (4-Aminomethyl-phenyl)-[(2R,6S)-10-hydroxy-6,11,11-trimethyl-1,2,5,6-tetrahydro-4H-2,6-methano-benzo[d]azocin-3-yl]-methanone]	1420	–
COC[C@H]1CCCN1C(=O)c1cccc(C(=O)N2CC[C@@]3(C)c4cccc(O)c4C[C@@H]2C3(C)C)c1 [Example 40, [(2R,6S)-10-Hydroxy-6,11,11-trimethyl-1,2,5,6-tetrahydro-4H-2,6-methano-benzo[d]azocin-3-yl]-[3-((R)-2-methoxymethyl-pyrrolidine-1-carbonyl)-phenyl]-methanone]	542	–
CC1(C)[C@H]2Cc3ccccc3[C@]1(C)CCN2C(=O)c1ccc2c(c1)C(=O)CC2 [Example 288, 6-[(2R,6S)-6,11,11-Trimethyl-1,2,5,6-tetrahydro-4H-2,6-methano-benzo[d]azocine-3-carbonyl)-indan-1-one]	901	–
COC12CCN(C(=O)c3ccc4nc[nH]c4c3)C(Cc3ccccc31)C2(C)C (stereo not drawn) [Example 103, (3H-Benzoimidazol-5-yl)-(6-methoxy-11,11-dimethyl-1,2,5,6-tetrahydro-4H-2,6-methano-benzo[d]azocin-3-yl)-methanone]	86	–
CC1(C)[C@H]2Cc3ccccc3[C@]1(C)CCN2C(=O)c1cccc(O)c1 [Example 319, (3-Hydroxy-phenyl)-[(2R,6S)-6,11,11-trimethyl-1,2,5,6-tetrahydro-4H-2,6-methano-benzo[d]azocin-3-yl]-methanone]	446	–
COc1ccc2c(c1NS(C)(=O)=O)[C@]1(C)CCN(C(=O)c3ccc4nc[nH]c4c3)[C@H](C2)[C@H]1C [Example 268, N-[(2R,6R,11S)-3-(3H-Benzoimidazole-5-carbonyl)-8-methoxy-6,11-dimethyl-1,2,3,4,5,6-hexahydro-2,6-methano-benzo[d]azocin-7-yl]-methanesulfonamide]	931	–
Cn1cc(C(=O)N2CC[C@@]3(C)c4cccc(O)c4C[C@@H]2C3(C)C)c2ccccc21 [Example 199, [(2R,6S)-10-Hydroxy-6,11,11-trimethyl-1,2,5,6-tetrahydro-4H-2,6-methano-benzo[d]azocin-3-yl]-(1-methyl-1H-indol-3-yl)-methanone]	137	–
CC1(C)[C@H]2Cc3c(O)cccc3[C@]1(C)CCN2C(=O)c1c[nH]c2ccc(Cl)cc12 [Example 196, (5-Chloro-1H-indol-3-yl)-[(2R,6S)-10-hydroxy-6,11,11-trimethyl-1,2,5,6-tetrahydro-4H-2,6-methano-benzo[d]azocin-3-yl]-methanone]	781	–
CC1(C)[C@H]2Cc3ccccc3[C@]1(C)CCN2C(=O)c1ccc(O)cc1 [Example 318, (4-Hydroxy-phenyl)-[(2R,6S)-6,11,11-trimethyl-1,2,5,6-tetrahydro-4H-2,6-methano-benzo[d]azocin-3-yl]-methanone]	31	–
C[C@H]1[C@H]2CC3=CC(C#N)CC=C3[C@]1(C)CCN2C(=O)c1ccc2nc[nH]c2c1 (stereo partly drawn) [Example 236, (2R,6R,11R)-3-(3H-Benzoimidazole-5-carbonyl)-6,11-dimethyl-1,2,3,4,5,6,8,9-octahydro-2,6-methano-benzo[d]azocine-9-carbonitrile]	–	189
COc1ccc2c(c1)C1CCN(C(=O)c3ccc4nc[nH]c4c3)C2C1 (stereo not drawn) [Example 99, (3H-Benzoimidazol-5-yl)-(4-methoxy-9-aza-tricyclo[6.3.1.0*2,7*]dodeca-2,4,6-trien-9-yl)-methanone]	–	285
CC1(C)[C@H]2Cc3c(O)cccc3[C@]1(C)CCN2C(=O)c1ccc2c(c1)NC(=O)C2 [Example 33, 6-[(2R,6S)-10-Hydroxy-6,11,11-trimethyl 1,2,5,6-tetrahydro-4H-2,6-methano-benzo[d]azocine-3-carbonyl]-1,3-dihydro-indol-2-one]	3490	–
COc1ccc(C(=O)N2CC[C@@]3(C)c4cccc(O)c4C[C@@H]2C3(C)C)cc1 [Example 14, [(2R,6S)-10-Hydroxy-6,11,11-trimethyl-1,2,5,6-tetrahydro-4H-2,6-methano-benzo[d]azocin-3-yl]-(4-methoxy-phenyl)-methanone]	734	–
CC1(C)[C@H]2Cc3ccccc3[C@]1(C)CCN2C(=O)c1cccc(S(N)(=O)=O)c1 [Example 343, 3-[(2R,6S)-6,11,11-Trimethyl-1,2,5,6-tetrahydro-4H-2,6-methano-benzo[d]azocine-3-carbonyl]-benzenesulfonamide]	1520	–
CC1(C)[C@H]2Cc3c(O)cccc3[C@]1(C)CCN2C(=O)c1ccc2nn[nH]c2c1 [Example 21, (3H-Benzotriazol-5-yl)-[(2R,6S)-10-hydroxy-6,11,11-trimethyl-1,2,5,6-tetrahydro-4H-2,6-methano-benzo[d]azocin-3-yl]-methanone]	669	–
CC1(O)CCc2ccc(C(=O)N3CC[C@@]4(C)c5ccccc5C[C@@H]3C4(C)C)cc21 (stereo partly drawn) [Example 292, (3-Hydroxy-3-methyl-indan-5-yl)-[(2R,6S)-6,11,11-trimethyl-1,2,5,6-tetrahydro-4H-2,6-methano-benzo[d]azocin-3-yl]-methanone]	502	–
C[C@@H]1[C@H]2Cc3ccc(C(=O)N(C)C)cc3[C@]1(C)CCN2C(=O)c1ccc2nc[nH]c2c1 [Example 155, (2R,6R,11S)-3-(3H-Benzoimidazole-5-carbonyl)-6,11-dimethyl-1,2,3,4,5,6-hexahydro-2,6-methano-benzo[d]azocine-8-carboxylic acid dimethylamide]	354	–
